According to patent US20040192765A1 (H. Lundbeck A/S, priority 2001, published 2004):

Key:
Assay type in all cases: in vivo
[1] = test system: primary care patients with major depression disorder; assay: 8-week, double-blind, randomised, placebo-controlled, flexible-dose clinical study
Source text: (§1) This has i.a. been found in the Chronic Mild Stress model (Wiliner P., Psychopharmachology 1997, 134, 319-329).
A total of 471 patients were randomised into the study. The all-patient-treated set comprised 469 patients and the full-analysis set comprised 468 patients.
There was an approximately 3 to 1 ratio of women to men in each treatment group, and almost all patients were Caucasian. The mean age was 43 years (SD 11). At baseline, the mean MADRS total score was approximately 29 for the treatment group, which signifies moderate to severely ill patients.

[2] = fixed dose studies (MADRS rating scale and Clinical Global Impression); details: escitalopram in a dose of 10 mg compared with citalopram 40 mg
[3] = test system: Chronic Mild Stress model; assay: Chronic Mild Stress model; details: animal models, compared with citalopram-racemate
Source text: as §1

[4] = pharmacological and clinical studies / animal models (summary statements)
Source text: This may be shown in functional in-vivo pharmacological models and studies of 5-HT-reuptake effect and or in behavior models, for example depression models.

In the case of `CN(C)CCC[C@@]1(c2ccc(F)cc2)OCc2cc(C#N)ccc21` [escitalopram, (S)-1-[3-(dimethylamino)propyl]-1-(4-fluorophenyl)-1,3-dihydro-5-isobenzofurancarbonitrile], the onset of effect ([1]; 10 mg escitalopram, 20 mg citalopram, versus placebo) is reported as “showed effects after one week”, the “adjusted mean change in MADRS total score versus placebo (significance)” value ([1]; Week 1 (p=0.023) to Week 4 (p=0.002), observed cases) is reported as “significantly superior therapeutic effect” and the “CGI improvement and severity subscale versus placebo” value ([1]; Week 4, last observation carried forward) is reported as “statistically significantly superior to placebo”. For the same compound, the “adjusted mean change in MADRS total score versus placebo” value ([1]; Week 4, last observation carried forward, 10 mg escitalopram, 20 mg citalopram, escitalopram p=0.002, citalopram statistically insignificant) was 2.7 points, the “CGI improvement and severity subscale versus placebo” value ([1]; from Week 1 onwards (p<0.05), observed cases, 4-week period) was “significantly superior to placebo” and the “effect as determined by MADRS rating scale and Clinical Global Impression (severity and improvement)” value [2] was “at least same effect as citalopram in a dose of 40 mg”. For the same compound, the speed of response [3] was “faster response than citalopram-racemate”, the onset of action ([4]; animal models and clinical studies, compared with the racemate and other SSRIs) was “faster onset of action” and the “potency relative to the racemate” value ([4]; pharmacological and clinical studies) was “substantially more than two times as potent as the racemate”. The extent of response ([4]; various animal models) was “more full response”.
